Data published in publication PMC5207657 (Journal of the American Chemical Society, 2016).
*1 amine or outer side, *2 acyl side, *3 side chain or, on linkers, in order; H or OH if unused. Where a SMILES comes first, the peptide text is derived from it. [ ]: non-standard residue; d: D form. X1 = O=C([C@H]1CCC[C@@H]1N[*:1])[*:2]; X2 = O=C([C@H]1CNC[C@@H]1N[*:1])[*:2]; Aib = CC(C)(N)C(=O)O

Assays:
[1] = molecular target: Human GLP-1R (glucagon-like peptide-1 receptor) (human) (UniProt P43220)
GLP-1R [2] = molecular target: T1, GLP-1R (Homo sapiens, UniProt P43220); experiment: GloSensor cAMP reporter assay; type: cell-based; details: read-out: cAMP Max Response (% GLP-1)
GLP-1R [3] = molecular target: T1, GLP-1R; details: within the concentration range examined (up to 1 µM)
[4] = previous studies; cited from earlier work
mouse pancreatic islets = details: cited from earlier work
GLP-1R [5] = molecular target: T1, GLP-1R; experiment: cell-based; details: HEK293FT, read-out: β-Arrestin-2 Max Response (% GLP-1)
GLP-1R [6] = molecular target: T1, GLP-1R; experiment: β-arrestin-1 recruitment BRET^2 assay; details: for Emax: HEK293FT, read-out: β-Arrestin-1 Max Response (% GLP-1)

T1 sequence (P43220 24-463): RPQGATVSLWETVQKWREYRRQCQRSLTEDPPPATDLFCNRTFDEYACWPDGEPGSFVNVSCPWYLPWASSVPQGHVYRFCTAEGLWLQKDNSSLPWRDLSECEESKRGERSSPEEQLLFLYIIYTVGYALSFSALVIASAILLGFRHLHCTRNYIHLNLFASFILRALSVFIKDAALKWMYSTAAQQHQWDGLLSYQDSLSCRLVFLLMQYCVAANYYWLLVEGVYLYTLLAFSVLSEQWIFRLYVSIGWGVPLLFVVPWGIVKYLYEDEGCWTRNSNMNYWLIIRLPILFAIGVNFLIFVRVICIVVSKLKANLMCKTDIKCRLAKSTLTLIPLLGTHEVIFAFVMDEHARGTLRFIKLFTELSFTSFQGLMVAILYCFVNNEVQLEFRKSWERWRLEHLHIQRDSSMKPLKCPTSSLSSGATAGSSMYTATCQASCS
Human GLP-1R (glucagon-like peptide-1 receptor) (human), sequence (P43220 24-463): as above

| Molecule | cAMP production (GloSensor reporter cells), pEC50 [1] | Emax (GLP-1R [2]) [%] | β-arrestin-2 recruitment, result in words (GLP-1R [3]) | Emax (GLP-1R [5]) [%] | Emax (GLP-1R [6]) [%] | β-arrestin-1 recruitment, result in words (GLP-1R [6]; within the concentration range examined (up to 1 µM)) | control of blood glucose in vivo [4] | duration of glucose control relative to GLP-1 [4] | insulin secretagogue activity compared with GLP-1 (mouse pancreatic islets) |
| --- | --- | --- | --- | --- | --- | --- | --- | --- | --- |
| GLP-1(7–36)NH2 (peptide) | -10.3 pEC50 (M) |  |  |  |  |  |  |  |  |
| CC[C@H](C)[C@H](NC(=O)[C@H](Cc1ccccc1)NC(=O)[C@H](CCC(=O)O)NC(=O)[C@H]1CNC[C@@H]1NC(=O)[C@H](C)NC(=O)[C@H](C)NC(=O)[C@H](CCC(N)=O)NC(=O)[C@H]1CCC[C@@H]1NC(=O)[C@H](CCC(=O)O)NC(=O)[C@H](CC(C)C)NC(=O)[C@H](Cc1ccc(O)cc1)NC(=O)[C@H]1CCC[C@@H]1NC(=O)[C@H](CO)NC(=O)C(C)(C)NC(=O)[C@H](CC(=O)O)NC(=O)[C@H](CO)NC(=O)[C@@H](NC(=O)[C@H](Cc1ccccc1)NC(=O)[C@@H](NC(=O)CNC(=O)[C@H](CCC(=O)O)NC(=O)C(C)(C)NC(=O)[C@@H](N)Cc1c[nH]cn1)[C@@H](C)O)[C@@H](C)O)C(=O)N[C@H]1CCC[C@@H]1C(=O)N[C@@H](Cc1c[nH]c2ccccc12)C(=O)N[C@@H](CC(C)C)C(=O)N[C@H](C(=O)N[C@H]1CNC[C@@H]1C(=O)NCC(=O)N[C@@H](CCCNC(=N)N)C(=O)NCC(N)=O)C(C)C [α/β-Peptide 4] (H-H[Aib]EGTFTSD[Aib]S[X1]YLE[X1]QAA[X2]EFI[X1]WLV[X2]GRG-NH2) |  | 60 ± 5 | no significant recruitment | 13 ± 4 | 6 ± 8 | no significant recruitment | can control blood glucose in vivo | prolonged | indistinguishable |
| CC[C@H](C)[C@H](NC(=O)[C@H](Cc1ccccc1)NC(=O)[C@H](CCC(=O)O)NC(=O)[C@H]1CNC[C@@H]1NC(=O)[C@H](C)NC(=O)[C@H](C)NC(=O)[C@H](CCC(N)=O)NC(=O)CNC(=O)[C@H](CCC(=O)O)NC(=O)[C@H](CC(C)C)NC(=O)[C@H](Cc1ccc(O)cc1)NC(=O)[C@H](CO)NC(=O)[C@H](CO)NC(=O)[C@@H](NC(=O)[C@H](CC(=O)O)NC(=O)[C@H](CO)NC(=O)[C@@H](NC(=O)[C@H](Cc1ccccc1)NC(=O)[C@@H](NC(=O)CNC(=O)[C@H](CCC(=O)O)NC(=O)[C@H](C)NC(=O)[C@@H](N)Cc1c[nH]cn1)[C@@H](C)O)[C@@H](C)O)C(C)C)C(=O)N[C@H]1CCC[C@@H]1C(=O)N[C@@H](Cc1c[nH]c2ccccc12)C(=O)N[C@@H](CC(C)C)C(=O)N[C@H](C(=O)N[C@H]1CNC[C@@H]1C(=O)NCC(=O)N[C@@H](CCCNC(=N)N)C(=O)NCC(N)=O)C(C)C [α/β-Peptide 1] (H-HAEGTFTSDVSSYLEGQAA[X2]EFI[X1]WLV[X2]GRG-NH2) |  | 101 ± 1 |  | 78 ± 4 | 88 ± 6 |  |  |  |  |

More lines, main results first:

| cAMP production (GloSensor reporter cells), pEC50 [1] | Emax (GLP-1R [2]) [%] | β-arrestin-2 recruitment, result in words (GLP-1R [3]) | Emax (GLP-1R [5]) [%] | Emax (GLP-1R [6]) [%] | β-arrestin-1 recruitment, result in words (GLP-1R [6]; within the concentration range examined (up to 1 µM)) | Molecule | control of blood glucose in vivo [4] | duration of glucose control relative to GLP-1 [4] | insulin secretagogue activity compared with GLP-1 (mouse pancreatic islets) |
| --- | --- | --- | --- | --- | --- | --- | --- | --- | --- |
|  | 97 ± 2 |  | 59 ± 2 | 41 ± 4 |  | CC[C@H](C)[C@H](NC(=O)[C@H](Cc1ccccc1)NC(=O)[C@H](CCC(=O)O)NC(=O)[C@H]1CNC[C@@H]1NC(=O)[C@H](C)NC(=O)[C@H](C)NC(=O)[C@H](CCC(N)=O)NC(=O)[C@H]1CCC[C@@H]1NC(=O)[C@H](CCC(=O)O)NC(=O)[C@H](CC(C)C)NC(=O)[C@H](Cc1ccc(O)cc1)NC(=O)[C@H]1CCC[C@@H]1NC(=O)[C@H](CO)NC(=O)C(C)(C)NC(=O)[C@H](CC(=O)O)NC(=O)[C@H](CO)NC(=O)[C@@H](NC(=O)[C@H](Cc1ccccc1)NC(=O)[C@@H](NC(=O)CNC(=O)[C@H](CCC(=O)O)NC(=O)[C@H](C)NC(=O)[C@@H](N)Cc1c[nH]cn1)[C@@H](C)O)[C@@H](C)O)C(=O)N[C@@H](C)C(=O)N[C@@H](Cc1c[nH]c2ccccc12)C(=O)N[C@@H](CC(C)C)C(=O)N[C@H](C(=O)N[C@@H](CCCCN)C(=O)NCC(=O)N[C@@H](CCCNC(=N)N)C(=O)NCC(N)=O)C(C)C [α/β-Peptide 9] (H-HAEGTFTSD[Aib]S[X1]YLE[X1]QAA[X2]EFIAWLVKGRG-NH2) |  |  |  |
|  | 96 ± 1 |  | 63 ± 5 | 43 ± 3 |  | CC[C@H](C)[C@H](NC(=O)[C@H](Cc1ccccc1)NC(=O)[C@H](CCC(=O)O)NC(=O)[C@H]1CNC[C@@H]1NC(=O)[C@H](C)NC(=O)[C@H](C)NC(=O)[C@H](CCC(N)=O)NC(=O)[C@H]1CCC[C@@H]1NC(=O)[C@H](CCC(=O)O)NC(=O)[C@H](CC(C)C)NC(=O)[C@H](Cc1ccc(O)cc1)NC(=O)[C@H]1CCC[C@@H]1NC(=O)[C@H](CO)NC(=O)[C@@H](NC(=O)[C@H](CC(=O)O)NC(=O)[C@H](CO)NC(=O)[C@@H](NC(=O)[C@H](Cc1ccccc1)NC(=O)[C@@H](NC(=O)CNC(=O)[C@H](CCC(=O)O)NC(=O)[C@H](C)NC(=O)[C@@H](N)Cc1c[nH]cn1)[C@@H](C)O)[C@@H](C)O)C(C)C)C(=O)N[C@@H](C)C(=O)N[C@@H](Cc1c[nH]c2ccccc12)C(=O)N[C@@H](CC(C)C)C(=O)N[C@H](C(=O)N[C@@H](CCCCN)C(=O)NCC(=O)N[C@@H](CCCNC(=N)N)C(=O)NCC(N)=O)C(C)C [α/β-Peptide 8] (H-HAEGTFTSDVS[X1]YLE[X1]QAA[X2]EFIAWLVKGRG-NH2) |  |  |  |
|  | 104 ± 1 |  | 74 ± 4 | 80 ± 3 |  | CC[C@H](C)[C@H](NC(=O)[C@H](Cc1ccccc1)NC(=O)[C@H](CCC(=O)O)NC(=O)[C@H]1CNC[C@@H]1NC(=O)[C@H](C)NC(=O)[C@H](C)NC(=O)[C@H](CCC(N)=O)NC(=O)CNC(=O)[C@H](CCC(=O)O)NC(=O)[C@H](CC(C)C)NC(=O)[C@H](Cc1ccc(O)cc1)NC(=O)[C@H]1CCC[C@@H]1NC(=O)[C@H](CO)NC(=O)[C@@H](NC(=O)[C@H](CC(=O)O)NC(=O)[C@H](CO)NC(=O)[C@@H](NC(=O)[C@H](Cc1ccccc1)NC(=O)[C@@H](NC(=O)CNC(=O)[C@H](CCC(=O)O)NC(=O)[C@H](C)NC(=O)[C@@H](N)Cc1c[nH]cn1)[C@@H](C)O)[C@@H](C)O)C(C)C)C(=O)N[C@@H](C)C(=O)N[C@@H](Cc1c[nH]c2ccccc12)C(=O)N[C@@H](CC(C)C)C(=O)N[C@H](C(=O)N[C@@H](CCCCN)C(=O)NCC(=O)N[C@@H](CCCNC(=N)N)C(=O)NCC(N)=O)C(C)C [α/β-Peptide 13] (H-HAEGTFTSDVS[X1]YLEGQAA[X2]EFIAWLVKGRG-NH2) |  |  |  |
